The results in this text go back to patent US11312713B2, “Imidazo[4,5-C]quinoline derivatives as LRRK2 inhibitors” (Pfizer Inc., priority 2017, dated 2022).

Where two headings read alike, the source gives them in different places.

One data set deals with mutant G2019S LRRK2 (Homo sapiens (Human), UniProt Q5S007, G2019S). The experiment in a line: LRRK2 kinase assay (LanthaScreen), G2019S mutant. The data set is classed as biochemical. The conditions noted are these: G2019S mutant LRRK2; LanthaScreen, LRRKtide substrate; read-out: LRRK2, G2019S IC50. An outline of the steps:
(§1)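 GST-tagged truncated enzyme (2 μg/mL) phosphorylates 100 nM fluorescein-LRRKtide with 1 mM ATP in HEPES pH 7.5, 3 mM MgCl2, DTT, Brij35; 30 min, room temperature, compound dose response top 3 μM. Stopped with EDTA; phospho-ERM detected by terbium anti-phospho-ERM TR-FRET; identical conditions for both enzymes.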
(In general: In TR-FRET formats the signal depends on donor and acceptor labels being close together.)

A short description of data set [1]: Intrinsic clearance (CLint) in human liver microsomes. The data set is classed as in vitro ADME. Conditions: for microsomal CLint at 1 μM / half-life at 1 μM: human, liver microsomes, pH 7.4, human liver microsomes; for half-life at 1 μM: read-out: T½; for Rate of metabolite / intrinsic clearance in comparison to undeuterated form (95A) / rate of metabolite formation in comparison to undeuterated form (95A): human liver microsomes. The procedure: Intrinsic Clearance (CLint) in Human Liver Microsomes
(§2) The final reaction volume (500 μL) contained 0.003% DMSO, 0.5% acetonitrile. The incubations were conducted at 37° C. and aliquots (50 μL) were removed at 0, 5, 10, 15, 20, 30, 45 and 60 minutes and quenched by addition to cold acetonitrile containing mass spectrometry (MS) internal standard (200 μL). Quenched incubations were vortex for 1 minute followed by centrifugation at 3000 rpm for 5 minutes at room temperature (Allegra X-12R, Beckman Coulter, Fullerton, Calif.). The supernatant (150 μL) was then removed and added to a 96-deep well injection plate containing 150 μL of water with 0.1% formic acid (v/v), the plates were capped and vortex for 1 minute and subsequently analyzed using LC-MS/MS as described below. Control incubations were prepared similar without adding the NADPH cofactor to monitor for any non-CYP/FMO metabolism. Discrete standard curves (0.5-2000 nM) were prepared, processed, and analyzed as described above.
(§3) Disappearance of substrates 95A and 96 and formation of metabolites 95 or 96B were determined using an LC-MS/MS system which is comprised of an AB Sciex 6500 triple quadrupole mass spectrometer equipped with an electrospray source (AB Sciex, Framingham, Mass.) and Agilent Technologies Infinity 1290 (Santa Clara, Calif.). A binary gradient was employed with a flow rate of 0.500 mL/min, using 0.1% formic acid in water as the aqueous mobile phase (solvent A) and 0.1% formic acid in acetonitrile (solvent B) as the organic phase. The LC gradient profile begins at 5% solvent B which was ramped to 98% B over 2 minutes and then held for 0.20 minutes and returned to initial conditions (5% B) over 0.5 minutes, for a total run time of 3.00 minutes. The analytical column used was a Phenomenex Kinetex 2.6 μm, 2.1×50 mm (Phenomenex, Torrance, Calif.), with an injection volume of 10 μL. The mass spectrometer was run under positive mode with the source temperature set to 500° C., ionization voltage set to 4.5 kV. The following MS/MS transitions were utilized: for substrate 95A (408→310), substrate 96 (411→313), metabolite 95 (424→326), and metabolite 96B (426→328). Analytes were quantified using Analyst software, version 1.6.2 or earlier (AB Sciex, Framingham, Mass.).

Data set [2] is described as follows: Intrinsic clearance (CLint) in cynomolgus monkey liver microsomes. In kind it is in vitro ADME. Conditions: for microsomal CLint at 1 μM / half-life at 1 μM: monkey, liver microsomes, pH 7.4, monkey liver microsomes; for half-life at 1 μM: read-out: T½; for Rate of metabolite / intrinsic clearance in comparison to undeuterated form (95A) / rate of metabolite formation in comparison to undeuterated form (95A): monkey liver microsomes. The procedure:
Intrinsic Clearance (CLint) in Cynomolgus Monkey Liver Microsomes
as §2, with “Incubations (in duplicate) contained either 95A or 96, or both 95A and 96 at final concentrations of 1 μM, pooled cynomolgus monkey liver microsomes (Xenotech, LLC, Lenexa, Kans., 0.25 μM CYP protein equivalent to 0.21 mg/mL protein concentration), NADPH (1.3 mM), magnesium chloride (3.3 mM) and potassium phosphate buffer (100 mM, pH 7.4). The final” for “The final”, “incubations were vortexed for 1” for “incubations were vortex for 1”, “formic acid (v/v). The plates were” for “formic acid (v/v), the plates were”, “capped and vortexed for 1” for “capped and vortex for 1”
as §3
Background: Liver microsomes are vesicles of endoplasmic reticulum, rich in cytochrome P450 enzymes.

Data set [3] can be described thus: Human liver microsomes enzyme kinetics (metabolite formation). The data set is classed as in vitro ADME. The protocol: Human Liver Microsomes Enzyme Kinetics
Incubations (in triplicate) contained 95A or 96 (1-1000 μM, final concentrations), pooled human liver microsomes (BD Biosciences, Bedford, Mass., 0.25 protein concentration, NADPH (1.3 mM), magnesium chrolide (5 mM) and potassium phosphate buffer (100 mM, pH 7.4). The final reaction volume (100 μL) contained 1 acetonitrile. The incubations were conducted at 37° C. At time points of 15 minutes for 95A, or 30 min for 96, 50 μL of incubate was quenched by the addition of 200 μL of cold acetonitrile containing 0.1% formic acid (v/v) and mass spectrometry (MS) internal standard. Quenched samples were vortexed for 1 minute followed by centrifugation at 3000 rpm for 5 minutes at room temperature (Allegra X-12R, Beckman Coulter, Fullerton, Calif.). The supernatant (150 μL) was placed into a clean injection sample block and dried down under nitrogen gas, then reconstituted with 150 μL of water containing 0.1% formic acid (v/v). The plates were capped and vortexed for 1 minute and subsequently analyzed using LC-MS/MS as described below. Formation of metabolites 95 (from substrate 95A) and 96B (from substrate 96) was quantitated using a standard curve (0.5-5000 nM) generated using a synthetic standard of substrate 95. Standard curve samples were prepared, processed, and analyzed as described above.
as §3

Data set [4] addresses LRRK2, WT (GST-tagged truncated LRRK2) (Homo sapiens, UniProt Q5S007). The experiment in a line: LRRK2 kinase assay (LanthaScreen), wild type. In kind it is biochemical. Put shortly: as §1
[5] abbreviates: combined substrates 95A and 96 - competition.
The mark [6] stands for this setting: formation of metabolite 95 (from 95A) or 96B (from 96), human liver microsomes.
[7] abbreviates: combined substrates (competition).
Where [8] appears, read: individual substrates, metabolite 95 from 95A, 96B from 96.
Where [9] appears, read: wild type LRRK2, LanthaScreen, LRRKtide substrate.

The IC50 is the concentration needed to halve the response being measured. For orientation: Km means the substrate concentration at which the rate is half of its maximum. Usually Vmax stands for the top rate of the reaction or transport when substrate is in excess.

mutant G2019S LRRK2, sequence (Q5S007 whole entry G2019S, the tested form may be a part): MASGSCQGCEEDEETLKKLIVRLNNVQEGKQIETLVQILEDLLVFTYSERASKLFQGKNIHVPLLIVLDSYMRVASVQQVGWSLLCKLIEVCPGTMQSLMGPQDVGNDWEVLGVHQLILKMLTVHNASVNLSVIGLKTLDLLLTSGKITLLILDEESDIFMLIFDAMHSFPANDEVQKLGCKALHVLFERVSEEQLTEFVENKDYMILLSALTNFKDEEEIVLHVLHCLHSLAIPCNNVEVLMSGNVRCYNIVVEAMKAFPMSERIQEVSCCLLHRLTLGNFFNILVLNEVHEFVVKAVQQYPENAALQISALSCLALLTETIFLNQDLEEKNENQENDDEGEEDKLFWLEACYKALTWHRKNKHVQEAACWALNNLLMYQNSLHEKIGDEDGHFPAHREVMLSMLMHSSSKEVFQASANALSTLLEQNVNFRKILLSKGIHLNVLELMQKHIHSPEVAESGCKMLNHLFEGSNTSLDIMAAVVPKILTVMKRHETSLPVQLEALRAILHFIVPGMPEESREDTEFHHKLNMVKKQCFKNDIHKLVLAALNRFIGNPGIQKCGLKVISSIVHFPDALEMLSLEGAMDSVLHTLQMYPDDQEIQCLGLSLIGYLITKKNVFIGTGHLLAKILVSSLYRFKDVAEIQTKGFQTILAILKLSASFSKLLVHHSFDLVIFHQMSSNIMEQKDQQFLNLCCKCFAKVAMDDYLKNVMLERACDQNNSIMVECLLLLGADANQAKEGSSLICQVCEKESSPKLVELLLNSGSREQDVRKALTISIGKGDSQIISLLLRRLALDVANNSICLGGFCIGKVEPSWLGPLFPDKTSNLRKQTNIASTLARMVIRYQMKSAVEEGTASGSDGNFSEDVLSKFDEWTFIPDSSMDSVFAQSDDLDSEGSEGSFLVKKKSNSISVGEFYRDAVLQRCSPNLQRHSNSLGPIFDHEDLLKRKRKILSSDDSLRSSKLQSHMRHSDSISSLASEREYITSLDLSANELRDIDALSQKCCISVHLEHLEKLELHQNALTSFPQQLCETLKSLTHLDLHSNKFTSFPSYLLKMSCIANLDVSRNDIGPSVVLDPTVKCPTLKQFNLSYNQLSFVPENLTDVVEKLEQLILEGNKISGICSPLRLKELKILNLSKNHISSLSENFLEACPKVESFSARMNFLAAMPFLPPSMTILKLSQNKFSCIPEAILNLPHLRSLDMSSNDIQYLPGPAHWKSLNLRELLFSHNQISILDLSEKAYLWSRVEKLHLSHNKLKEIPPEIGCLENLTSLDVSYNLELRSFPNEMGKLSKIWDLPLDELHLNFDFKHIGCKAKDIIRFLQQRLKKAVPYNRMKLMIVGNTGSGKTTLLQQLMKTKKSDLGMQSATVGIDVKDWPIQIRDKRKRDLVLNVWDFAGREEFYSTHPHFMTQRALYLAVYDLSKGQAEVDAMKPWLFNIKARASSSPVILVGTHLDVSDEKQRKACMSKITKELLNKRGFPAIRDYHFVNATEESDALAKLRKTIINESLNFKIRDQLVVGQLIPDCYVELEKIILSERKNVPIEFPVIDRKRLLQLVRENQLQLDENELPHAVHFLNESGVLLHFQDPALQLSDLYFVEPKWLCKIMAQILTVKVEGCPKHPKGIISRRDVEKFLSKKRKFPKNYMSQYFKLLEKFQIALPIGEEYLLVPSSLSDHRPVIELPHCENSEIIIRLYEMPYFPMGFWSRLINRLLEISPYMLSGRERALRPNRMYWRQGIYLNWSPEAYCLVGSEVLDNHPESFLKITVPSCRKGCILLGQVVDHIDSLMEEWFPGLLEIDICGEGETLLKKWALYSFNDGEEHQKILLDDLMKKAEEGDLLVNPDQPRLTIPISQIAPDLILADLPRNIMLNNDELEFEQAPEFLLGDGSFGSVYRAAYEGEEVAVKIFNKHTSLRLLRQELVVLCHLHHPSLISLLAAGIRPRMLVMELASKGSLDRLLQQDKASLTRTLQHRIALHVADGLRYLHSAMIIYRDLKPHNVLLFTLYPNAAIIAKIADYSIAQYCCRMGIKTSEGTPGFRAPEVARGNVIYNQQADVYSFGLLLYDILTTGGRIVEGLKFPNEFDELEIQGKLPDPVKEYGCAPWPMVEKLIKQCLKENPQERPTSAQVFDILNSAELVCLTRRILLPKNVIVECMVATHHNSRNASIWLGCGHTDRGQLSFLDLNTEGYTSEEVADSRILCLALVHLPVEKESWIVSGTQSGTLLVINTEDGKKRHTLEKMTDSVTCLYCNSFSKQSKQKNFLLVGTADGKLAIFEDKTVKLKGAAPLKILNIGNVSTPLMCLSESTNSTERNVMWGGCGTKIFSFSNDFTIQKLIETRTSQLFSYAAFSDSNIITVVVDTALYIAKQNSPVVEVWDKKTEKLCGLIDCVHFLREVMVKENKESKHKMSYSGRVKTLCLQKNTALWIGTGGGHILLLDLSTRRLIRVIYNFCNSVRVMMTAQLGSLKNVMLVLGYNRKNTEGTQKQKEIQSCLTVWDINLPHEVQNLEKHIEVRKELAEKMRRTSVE

As to `Cc1cnc(Cc2nc3cnc4ccc(Cl)cc4c3n2[C@@H]2CCO[C@H](C)C2)cn1` [Example 95A, 8-chloro-2-[(5-methylpyrazin-2-yl)methyl]-1-[(2R,4R)-2-methyltetrahydro-2H-pyran-4-yl]-1H-imidazo[4,5-c]quinoline], the IC50 at mutant G2019S LRRK2 amounted to 6.06 nM. For the same compound, the microsomal CLint at 1 μM was 14 µL/min/mg in data set [1] (setting [5]); 16 µL/min/mg in data set [1] (individual substrates, 1 μM); 193 µL/min/mg in data set [2] (setting [5]); 215 µL/min/mg in data set [2] (individual substrates, 1 μM). For the same compound, the half-life at 1 μM in data set [1] (setting [5]) was 65.9 min; in data set [1] (individual substrates, 1 μM), 54.4 min; in data set [2] (setting [5]) it was 17.2 min; in data set [2] (individual substrates, 1 μM), 15.3 min. Also, the Km in data set [3] (setting [6]) worked out at 15.2 µM. Moreover, the Vmax in data set [3] (setting [6]) stood at 0.229 nmol/min/mg. Also, in data set [3] (pH 7.4, formation of metabolite 95 (from 95A) or 96B (from 96), human liver microsomes), the microsomal CLint turned out to be 15.1 µL/min/mg.

Turning to `[2H]C([2H])([2H])c1cnc(Cc2nc3cnc4ccc(Cl)cc4c3n2[C@@H]2CCO[C@H](C)C2)cn1` [Example 96, 8-chloro-2-{[5-(^2H3)methylpyrazin-2-yl]methyl}-1-[(2R,4R)-2-methyltetrahydro-2H-pyran-4-yl]-1H-imidazo[4,5-c]quinoline], the Rate of metabolite was 1.65 nmol/min/mg in data set [1] (setting [5]), 1.10 nmol/min/mg in data set [1] (setting [8]), 25.19 nmol/min/mg in data set [2] (setting [5]) and 22.83 nmol/min/mg in data set [2] (setting [8]). In addition, the “intrinsic clearance in comparison to undeuterated form (95A)” value in data set [1] (setting [7]), in data set [1] (individual substrates), in data set [2] (setting [7]), in data set [2] (individual substrates) and in data set [3] (human liver microsomes enzyme kinetics) was “decreased intrinsic clearance” each time. For the same compound, the “rate of metabolite formation in comparison to undeuterated form (95A)” value in data set [1] (setting [7]) is reported as “lower rate of metabolite formation”; in data set [1] (individual substrates) it was “lower rate of metabolite (96B) formation”; in data set [2] (setting [7]), “lower rate of metabolite formation”; in data set [2] (individual substrates), “lower rate of metabolite (96B) formation”. Further, the microsomal CLint at 1 μM in data set [1] (setting [5]) was 6.86 µL/min/mg; in data set [1] (individual substrates, 1 μM), 6.68 µL/min/mg; in data set [2] (setting [5]) it was 110 µL/min/mg; in data set [2] (individual substrates, 1 μM) it was 151 µL/min/mg. The half-life at 1 μM in data set [1] (setting [5]) was 127 min; in data set [1] (individual substrates, 1 μM), 90.4 min; in data set [2] (setting [5]) it was 29.9 min; in data set [2] (individual substrates, 1 μM), 21.9 min.

On to `FC1(F)COCCC1n1c(Cn2cc(C3CC3)nn2)nc2cnc3ccc(Cl)cc3c21` (centres unmarked) [Example 94, 8-chloro-2-[(4-cyclopropyl-1H-1,2,3-triazol-1-yl)methyl]-1-(3,3-difluorotetrahydro-2H-pyran-4-yl)-1H-imidazo[4,5-c]quinolone], for which the IC50 in data set [4] (setting [9]) came to 6.35 nM; at mutant G2019S LRRK2 it was 6.48 nM.

For `Cc1nc(Cc2nc3cnc4ccc(Cl)cc4c3n2C2CN(C)CC2(F)F)no1` (centres unmarked) [Example 45, 8-chloro-1-(4,4-difluoro-1-methylpyrrolidin-3-yl)-2-[(5-methyl-1,2,4-oxadiazol-3-yl)methyl]-1H-imidazo[4,5-c]quinoline], the figures for the IC50 (in data set [4] (setting [9]); at mutant G2019S LRRK2) were 8.13 nM and 5.82 nM, respectively.

With `Cc1nc(Cc2nc3cnc4ccc(C#N)cc4c3n2[C@@H]2CCN(CC(F)(F)F)C2)no1` [Example 56, 2-[(5-methyl-1,2,4-oxadiazol-3-yl)methyl]-1-[(3R)-1-(2,2,2-trifluoroethyl)pyrrolidin-3-yl]-1H-imidazo[4,5-c]quinoline-8-carbonitrile], the IC50 came to 6.46 nM in data set [4] (setting [9]) and 6.48 nM at mutant G2019S LRRK2.

On to `Cc1cnc(C(O)c2nc3cnc4ccc(Cl)cc4c3n2[C@@H]2CCO[C@H](C)C2)cn1` (single isomer, unassigned) [Example 14], for which the figures for the IC50 (in data set [4]; at mutant G2019S LRRK2) were 14.2 nM and 12.8 nM, respectively.
